Measured values: patent US20080227829A1, “Neurogenic compounds” (priority 2007, published 2008)
“Also recorded” adds a separate entry of the source.

Legend:
[1] = tested on: mice; experiment: Morris water maze (acquisition training and probe trial), long-term injection study; assay type: in vivo
Description: A six-week study was conducted in which apigenin was administered by injection to mice at two different doses in conjunction with or without daily voluntary exercise (running). Behavioral testing was administered after 30 days of injections using the Morris water maze and object recognition test. Apigenin was dissolved in [10:90] Tween 80: 0.9% NaCl. All compounds were purchased from commercial sources. Aliquots of Tween 80: 0.9% NaCl solutions were used for testing in the in vivo model. Sixty-four mice (age seven wks) were divided into four test groups (sixteen per group) and received either: Injections were administered intraperitoneally (i.p.) for forty-two days total. In addition to test injections, daily i.p. injections of 5-bromo-2-deoxyuridine (BrdU) [10 mg/ml] were administered for the first eight days at a dose of 50 mg/kg. Within each test group, eight mice were randomly selected to receive running exercise. These thirty-two mice (eight mice per injection group) were transferred daily (on Days 1-40 of the study) from their normal static housing to an automated voluntary running wheel cage for two hours a day. Non-running mice remained in their static cages throughout the study. On Day 31, all mice began acquisition training on the Morris water maze immediately following their i.p. injection. See, e.g., Morris, Developments of a water-maze procedure for studying spatial learning in the rat, J. Neurosci. Methods, 11(1) (1984), hereby incorporated herein by reference. Mice were trained for nine consecutive days, receiving two trials a day using a hidden platform paradigm. The platform was located in the northwest (NW) quadrant of the water maze. To measure the effect of apigenin (with or without exercise) on learning, latency to platform was recorded for each trial. After daily training on the water maze, non-running mice were returned to their normal static housing while running mice were placed into their running wheel cages for two hours. On Day 9 of the water maze training, the mice received a probe trial 4 hours after the last training. During the probe trial the platform was removed and retention of memory of the target NW quadrant was recorded.

[2] = tested on: dentate gyrus; experiment: 10-day oral (food) and i.p. study, BrdU/DAB quantification of dividing cells; assay type: in vivo, mice; details: 10 days; i.p. injection (apigenin 25 mg/kg, epicatechin 20 mg/kg) or food 250 ppm and 500 ppm; vs controls
Description: A 10-day food study was conducted in which the effects of oral administration of apigenin were compared with apigenin effects upon injection. Food pellets containing epicatechin were tested alongside apigenin. Animals were fed food containing apigenin, epicatechin or control pellets in two doses: 250 ppm and 500 ppm. Aliquots of apigenin and epicatechin were dissolved in [10:90] Tween 80: 0.9% NaCl. Aliquots of Tween 80: 0.9% NaCl were used as controls. Forty mice (age seven weeks) were divided into three test injection groups (n=five per group) and five test food groups (n=five per group) and received: Test injections were administered i.p. for ten days total. Test food was distributed on Day 1 and mice were allowed to eat freely for the duration of the ten days. Daily i.p. injections of BrdU [10 mg/ml] were administered to all animals the first eight days of this study at a dose of 50 mg/kg. At the end of ten days, all mice were perfused using 4% paraformaldehyde and their brain tissue was extracted. Brain tissue was sectioned and stained for BrdU/DAB quantification for dividing cells.

[3] = tested on: Adult neural progenitor cells; experiment: Immunohistochemistry with lineage-specific markers (Tuj 1, GFAP, RIP); assay type: cell-based
Description: Adult neural progenitor cells were plated in N2 media containing FGF2 for twenty-four hours. See Bottenstein et al., Growth of a rat neuroblastoma cell line in serum-free supplemented medium, Proc. Natl. Acad. Sci. USA 76(1) (1979) (describing components of N2 media). The cells were replaced with fresh N2 media (without FGF2) and apigenin was added. In all experiments, 5 mM apigenin dissolved in DMSO was used. As a positive control for neuronal differentiation, N2 media containing retinoic acid (RA) and forskolin (FSK) was used. As a negative control, N2 media and the equivalent amount of DMSO or N2 was used. Either a NeuroD luciferase reporter assay (purchased from Promega, cat. No. e-1980, Dual-Luciferase Reporter 1000 Assay System) was performed two days later or immunohistochemistry was performed four days later. The immunohistochemical analysis of the apigenin-treated and control cells was performed by fixing and staining the cells after four days with lineage-specific markers (Tuj 1 for neurons, GFAP for astrocytes, and RIP for oligodendrocytes). Tuj 1 is a neuron-specific class III beta-tubulin used as a marker for new neurons. GFAP (glial fibrillary acidic protein), an intermediate-filament protein which is expressed almost exclusively in the astrocytes of the central nervous system, is used as a marker for new astrocytes. RIP is a monoclonal antibody used as an early marker of developing oligodendrocytes.

[4] = 5 mM apigenin, cells first proliferating in FGF2, four days

SMILES: O=c1cc(-c2ccc(O)cc2)oc2cc(O)cc(O)c12 [apigenin]
- probe trial: frequency into target quadrant ([1]; 12.5 mg/kg i.p., non-runners, p<0.06): trend toward significance
- latency to platform (acquisition phase) ([1]; 12.5 mg/kg i.p., non-runners, vs control): No significant differences
- probe trial: frequency into target quadrant ([1]; 12.5 mg/kg i.p., runners, p<0.001): significant preference for the target quadrant
- latency to platform (acquisition phase) ([1]; 12.5 mg/kg i.p., runners, vs control runners and control non-runners, p<0.05): significantly shorter latencies
- probe trial: frequency into target quadrant ([1]; 25 mg/kg i.p., non-runners, p<0.05): significant preference for the target quadrant
- latency to platform (acquisition phase) ([1]; 25 mg/kg i.p., non-runners, vs control runners, p<0.05): significantly different from the control runners
- probe trial: frequency into target quadrant ([1]; 25 mg/kg i.p., runners, p<0.06): strong preference for entering the target quadrant more frequently than other quadrants, although this is not statistically significant
- latency to platform (acquisition phase) ([1]; 25 mg/kg i.p., runners, vs control runners and control non-runners, p<0.05): significantly shorter latencies
- probe trial: total duration of time spent in the quadrants ([1]; 12.5 and 25 mg/kg i.p., runners and non-runners): no significant differences among the groups
- probe trial: frequency in quadrants (FIG. 1 legend) ([1]; apigenin treated mice, runners and non-runners): entered the target quadrant more frequently than all other quadrants
- learning (summary of water maze) ([1]; with or without exercise): increases learning with or without exercise
- number of dividing cells (BrdU+) in the dentate gyrus [2]: significant increase in the number of dividing cells; also recorded: increased BrdU labeling
- astrocyte (GFAP) differentiation [3, 4]: 1-5%
- oligodendrocyte (RIP) differentiation [3, 4]: 1-5%
- percentage of Tuj 1-positive neurons ([3]; 5 mM apigenin, directly plated into N2 media without FGF2, four days): 5 to 30%
- difference in Tuj 1 or Map2ab-positive neurons with or without FGF-2 pre-treatment ([3]; repeated experiments): no significant difference
